Data taken from US8188121B2, “Substituted pyridines as antiparasitic AZA teraryl compounds” (The University of North Carolina at Chapel Hill, priority 2005, dated 2012).
Counter-ions that a name gives are not always drawn. Like-named read-outs stand apart in the source and are kept apart here. One block for each molecule: values may come before it.

Key:
[1] = system: Trypanosoma brucei rhodesiense (T. b. r.); experiment: In vitro antiprotozoal activity against T. b. r.; type: cell-based
Procedure: (§1) In vitro antiprotozoal activities were measured following established protocols. See Ismail, M. A., et al., J. Med. Chem., 46, 4761-4769 (2003); Stephens, C. E., et al., Bioorg. Med. Chem. Lett., 13, 2065-2069 (2003) (in vitro assay against Leishmania donovani).
(§2) Testing methods are as described above in Example 17.

[2] = system: Plasmodium falciparum (P. f.); experiment: In vitro antiprotozoal activity against P. f.; type: cell-based
Procedure: as §1, §2

[3] = system: Leishmania donovani (L. d.); experiment: In vitro antiprotozoal activity against L. d.; type: cell-based; details: read-out: L. d. IC50
Procedure: as §1, §2

L-6 rat mycoblast cells = experiment: cells
Procedure: as §1, §2

[4] = system: STIB 900 strain of Trypanosoma brucei rhodesiense; experiment: T. b. r. STIB 900 mouse model; type: in vivo; details: for responders at 20 mg/kg: Trypanosoma brucei, 1440 h, mice surviving parasite free for 60 days, groups of four, read-out: Cures (converted)
Procedure: The activities of compounds 20, 18, 21, 48, 23c, 24c, 5, 4, and 10 against the STIB 900 strain of Trypanosoma brucei rhodesiense (T. b. r.) in a mouse model are shown in Table 3. […] Groups of four mice were infected intraperitoneally with 2×10^5 bloodstream forms of T. b. r. STIB 900 which originates from a patient in Tanzania. On days 3, 4, 5, and 6 post-infection the experimental groups were treated with the indicated compound, either by the intraperitoneal route, or for prodrugs, by the oral route. Usually the highest tolerated dose was used. The highest tolerated dose was determined in a pretoxicological experiment.
Parasitemia of the mice was checked daily up to day 14 post-infection and thereafter 2 times per week up to day 60. One group of mice was not treated and acted as control. Untreated control animals expire between day 7 and 8 post-infection. For relapsing mice, the day of death was recorded and the survival time determined. For the data shown in Table 3, cures reflect the number of mice that survive and are parasite free for 60 days. Survival reflects the average days of survival.
as §2

DNA minor groove = experiment: ΔTm of linear triaryl dications (DNA minor groove binding)
[5] = Rattus norvegicus, L6, read-out: CT IC50, Table 4, L-6 cells
[6] = Trypanosoma brucei, RHODESIENSE, Table 1, k/K = thousand, read-out: T. b. r. IC50
[7] = Plasmodium falciparum, Table 1, k/K = thousand
[8] = Rattus norvegicus, L6, read-out: CT IC50
[9] = 20 mg/kg ip, days 3-6 post-infection, average days of survival
[10] = 20 mg/kg ip, days 3-6 post-infection
[11] = Table 2, K = thousand, read-out: T. b. r. IC50
[12] = Table 1, k/K = thousand, read-out: T. b. r. IC50

melting point: 290 to 292 °C
SMILES: N=C(NO)c1ccc(-c2cnc(-c3ccc(C(=N)NO)cc3)nc2)cc1 [Compound 28, 2,5-Bis-[4′-(N-hydroxyamidino)phenyl]-pyrimidine]

SMILES: N=C(N)c1ccc(-c2ccc(-c3ccc(C(=N)N)nc3)cn2)cc1 [Compound 89, Phenyl[1,2′]pyridinyl[5′,5″]pyridinyl-4,2″-bis-amidine hydrochloride salt]
IC50 ([1]; Trypanosoma brucei, RHODESIENSE, Table 4, read-out: T. b. IC50): 6 nM
IC50 ([2]; Plasmodium falciparum, Table 4): 1 nM
IC50 ([3]; Leishmania donovani, Table 4): 510 nM
IC50 (L-6 rat mycoblast cells; [5]): 19.9 µM
Cures ([4]; 5 mg/kg ip, Table 5): 3/4
Survival ([4]; 5 mg/kg ip, Table 5): > 60 days

SMILES: N=C(N)c1ccc(-c2ccc(-c3ccc(C(=N)N)nc3)cc2)cc1 [Compound 80, Phenyl[1,1′]phenyl[4′,5″]pyridinyl-4,2″-bis-amidine hydrochloride salt]
IC50 ([3]; Leishmania donovani, Table 4): 84 nM
IC50 (L-6 rat mycoblast cells; [5]): 2.8 µM

SMILES: CC(=O)O.N=C(N)c1ccc(-c2ccc(-c3ccc(C(=N)N)o3)cn2)cc1 [Compound 10, 5-[6-(4-Amidinophenyl)-pyridin-3-yl]-furan-2-carboxamidine acetate salt]
IC50 [1, 6]: 2 nM
IC50 [2, 7]: 5.2 nM
IC50 ([3]; Leishmania donovani, Table 1): 20500 nM
IC50 (L-6 rat mycoblast cells; [8]): 30.9 µM
Survival [4, 9]: >53.5 days
responders at 20 mg/kg [4, 10]: 75%

SMILES: N=C(N)c1ccc(-c2ccc(-c3ccc(C(=N)N)nc3)cc2)cn1 [Compound 66, 1,4-Bis-(2′-amidinopyridin-5′-yl)-phenylene hydrochloride salt]
ΔTm (DNA minor groove; Table 1): 16.1 °C
IC50 ([3]; Leishmania donovani, Table 1): 720 nM
IC50 ([3]; Leishmania donovani, Table 4): 63 nM
IC50 (L-6 rat mycoblast cells; [8]): 31.3 µM
IC50 (L-6 rat mycoblast cells; [5]): 1.2 µM
Cures ([4]; 5 mg/kg ip, Table 5): 0/4
Survival ([4]; 5 mg/kg ip, Table 5): > 51.5 days

melting point: 194 to 195 °C
SMILES: N=C(NO)c1ccc(-c2ccc(-c3ccc(C(=N)NO)o3)cn2)cc1 [Compound 9, N-Hydroxy-5-{6-[4-(N-hydroxyamidino)-phenyl]-pyridin-3-yl}-furan-2-carboxamidine]

melting point: 217 to 218 °C
SMILES: CONC(=N)c1ccc(-c2cnc(-c3ccc(C(=N)NOC)cc3)nc2)cc1 (as salt: hydrochloride) [Compound 29, 2,5-Bis-[4′-(N-methoxyamidino)phenyl]-pyrimidine]

ΔTm (DNA minor groove; Table 2): 18.2 °C
IC50 [1, 11]: 53 nM
IC50 ([2]; Table 2, K = thousand): 19 nM
IC50 ([3]; Table 2): 280 nM
IC50 (L-6 rat mycoblast cells): 8 µM
SMILES: N=C(N)c1ccc(-c2ccc3cc(-c4ccc(C(=N)N)cc4)ccc3c2)cc1 [Compound 38b, Phenyl[1,2′]naphthyl[6′,1″]phenyl-4,4″-bis-amidine]

SMILES: N=C(N)c1ccc(-c2ccc(-c3ccc(C(=N)N)cn3)cn2)cc1 [Compound 94, Phenyl[1,2′]pyridinyl[5′,2″]pyridinyl-4,5″-bis-amidine hydrochloride salt]
IC50 ([2]; Plasmodium falciparum, Table 4): 3 nM
IC50 ([3]; Leishmania donovani, Table 4): 6820 nM
IC50 (L-6 rat mycoblast cells; [5]): 28.3 µM
Survival ([4]; 5 mg/kg ip, Table 5): > 60 days

IC50 ([3]; Leishmania donovani, Table 4): 1830 nM
SMILES: N=C(N)c1ccc(-c2cnc(-c3ccc(C(=N)N)nc3)nc2)cn1 [Compound 77, 2,5-Bis-(2′-amidinopyridin-5′-yl)-pyrimidine hydrochloride salt]

SMILES: N=C(N)c1ccc(-c2ccc(-c3ccc(C(=N)N)cn3)cc2)cc1 [Compound 83, Phenyl[1,1′]phenyl[4′,2″]pyridinyl-4,5″-bis-amidine hydrochloride salt]
IC50 ([3]; Leishmania donovani, Table 4): 1370 nM
IC50 (L-6 rat mycoblast cells; [5]): 26.7 µM

SMILES: Cl.N=C(N)c1ccc(-c2ccc(-c3ccc(C(=N)N)cc3)c(F)c2)cc1 [Compound 23a, 2′-Fluoro-[1,1′;4′,1″]terphenyl-4,4″-bis-amidine hydrochloride salt]
ΔTm (DNA minor groove; Table 1): 15.1 °C
IC50 [1, 6]: 2 nM
IC50 [2, 7]: 1 nM
IC50 ([3]; Leishmania donovani, Table 1): 340 nM
IC50 (L-6 rat mycoblast cells; [8]): 6.4 µM

IC50 [1, 12]: 47 nM
IC50 ([2]; Table 1, k/K = thousand): 10 nM
IC50 ([3]; Table 1): > 100000 nM
SMILES: N=C(N)c1ccc(-c2ccc(-c3ccc(C(=N)N)cn3)cc2)nc1 [Compound 31, 1,4-Bis-(5′-amidinopyridin-2′-yl)-phenylene]

SMILES: Cl.N=C(N)c1ccc(-c2ccc(-c3ccc(C(=N)N)cc3)c(C(F)(F)F)c2)cc1 [Compound 23b, 2′-Trifluoromethyl-[1,1′;4′,1″]terphenyl-4,4″-bis-amidine hydrochloride salt]
ΔTm (DNA minor groove; Table 1): 10.1 °C
IC50 [1, 6]: 48 nM
IC50 [2, 7]: 15 nM
IC50 ([3]; Leishmania donovani, Table 1): 3000 nM
IC50 (L-6 rat mycoblast cells; [8]): 9 µM
melting point: > 300 °C

SMILES: N=C(N)Nc1ccc(-c2ccc(-c3ccc(NC(=N)N)cc3)cc2)cc1 [Compound 48, 4,4″-Bis-guanidino-[1,1′;4′,1″]terphenyl]
ΔTm (DNA minor groove; Table 1): 12.2 °C
IC50 [1, 6]: 18 nM
IC50 [2, 7]: 27 nM
IC50 ([3]; Leishmania donovani, Table 1): 1200 nM
IC50 (L-6 rat mycoblast cells; Rattus norvegicus, L6, read-out: CT IC50, Table 1, L-6 cells): 25.4 µM
Survival [4, 9]: >60 days
responders at 20 mg/kg [4, 10]: 0%

SMILES: CC(=O)O.N=C(N)c1ccc(-c2ccc(-c3ccc(C(=N)N)o3)cc2)o1
melting point: 228 to 230 °C

melting point: > 300 °C
SMILES: N=C(NO)c1ccc(-c2ccc(-c3ccc(C(=N)NO)o3)cc2)o1 [Compound 13, N-Hydroxy-5-{4-[5-(N-hydroxyamidino)-furan-2-yl]-phenyl}-furan-2-carboxamidine]

IC50 ([3]; Leishmania donovani, Table 4): 2640 nM
SMILES: N=C(N)c1ccc(-c2ccc(-c3cnc(C(=N)N)nc3)cn2)cc1 [Compound 100, Phenyl[1,2′]pyridinyl[5′,5″]pyrimidinyl-4,2″-bis-amidine hydrochloride salt]

IC50 ([3]; Leishmania donovani, Table 4): 190 nM
SMILES: N=C(N)c1ccc(-c2ccc(-c3cnc(C(=N)N)nc3)cc2)cc1 [Compound 86, Phenyl[1,1′]phenyl[4′,5″]pyrimidinyl-4,2″-bis-amidine hydrochloride salt]

IC50 ([3]; Leishmania donovani, Table 4): 1720 nM
SMILES: N=C(N)c1ncc(-c2ccc(-c3cnc(C(=N)N)nc3)cc2)cn1 [Compound 73, 1,4-Bis-(2′-amidinopyrimidin-5′yl)-phenylene hydrochloride salt]

SMILES: N=C(N)c1ccc(-c2ccc(-c3cnc(C(=N)N)cn3)cn2)cc1 [Compound 97, Phenyl[1,2′]pyridinyl[5′,5″]pyrazinyl-4,2″-bis-amidine hydrochloride salt]
IC50 ([3]; Leishmania donovani, Table 4): 15600 nM
IC50 (L-6 rat mycoblast cells; [5]): 93.4 µM

SMILES: N=C(N)c1cnc(-c2ccc(-c3cnc(C(=N)N)cn3)cc2)cn1 [Compound 71, 1,4-Bis-(2′-amidinopyrazin-5′-yl)-phenylene hydrochloride salt]
IC50 ([2]; Plasmodium falciparum, Table 4): 5170 nM
IC50 ([3]; Leishmania donovani, Table 4): 10000 nM
IC50 (L-6 rat mycoblast cells; [5]): 46.5 µM

SMILES: N=C(N)c1ccc(-c2cnc(-c3ccc(C(=N)N)cc3)cn2)cc1 [Compound 75, 2,5-Bis-(4′-amidinophenyl)-pyrazine hydrochloride salt]
IC50 ([1]; Trypanosoma brucei, RHODESIENSE, read-out: T. b. IC50): 18 nM
IC50 ([3]; Leishmania donovani): 562 nM
IC50 (L-6 rat mycoblast cells; [5]): 42.5 µM

IC50 [1, 11]: 175 nM
IC50 ([2]; Table 2, K = thousand): 21 nM
IC50 ([3]; Table 2): 12900 nM
IC50 (L-6 rat mycoblast cells): 7.3 µM
SMILES: N=C(N)c1ccc(-c2ccc(-c3ccc(C(=N)N)cc3)c3ccccc23)cc1 [Compound 38a, Phenyl[1,1]napthyl[4′,1″]phenyl-4,4″-bis-amidine]

SMILES: CC(=O)O.N=C(N)c1ccc(-c2ccc(-c3ccc(C(=N)N)cc3)cc2)cc1 [Compound 20, [1,1′;4′,1″]Terphenyl-4,4″-bis-carboxamidine acetate salt]
ΔTm (DNA minor groove; Table 1): 19.1 °C
IC50 [1, 6]: 5 nM
IC50 [2, 7]: 1 nM
IC50 (L-6 rat mycoblast cells; [8]): 22.1 µM
Survival [4, 9]: 52.5 days
responders at 20 mg/kg [4, 10]: 0%

IC50 [1, 12]: 530 nM
IC50 ([2]; Table 1, k/K = thousand): 14 nM
IC50 ([3]; Table 1): 7200 nM
SMILES: CC(C)N=C(N)Nc1ccc(-c2ccc(-c3ccc(NC(N)=NC(C)C)cc3)cc2)cc1 [Compound 51b, 4,4″-Bis(N′-isopropyl)-guanidino-[1,1′;4′,1″]terphenyl]
IC50 (L-6 rat mycoblast cells; read-out: CT IC50, Table 1, L-6 cells): 21.9 µM
